Measured values published in patent publication US9463188B2, “Osteopontin production inhibitor containing dictyopyrone derivative or dihydrodictyopyrone derivative as active ingredient” (TOHOKU UNIVERSITY, priority 2013, dated 2016).

Tested on: human non-small cell lung cancer-derived cell line A549
Test: Matrix-Invasion assay (Matrigel)
Format: cell-based
Procedure: As a second test for determining whether or not the physiological function of cells induced by OPN production is suppressed by a test compound, Matrix-Invasion assay was performed. In this assay, cups (inserts) whose bottom was covered with a membrane coated with collagen or laminin (Matrigel, BD Bioscience) as an extracellular matrix component and having φ8 μm pores and a 24-well plate for inserting the inserts were prepared. Cells suspended in a serum-free medium were placed in the inside insert, and a medium containing a substance inducing metastasis and invasion of cells (here, fetal calf serum) was injected into each well of the outside 24-well plate to determine the number of cells passing through the Matrigel-coated membrane of the insert and coming into the outside well.
Specifically, a fluorescent dye was introduced into A549 cells invading outside the membrane, and then the cells were separated from the membrane to measure their fluorescence intensity. At the same time, a fluorescent dye was introduced also into a known number of cells for preparing a calibration curve, and a calibration curve was prepared from their fluorescence intensity. Then, the number of invading cells of a test sample containing an unknown number of cells was determined from the fitted curve.
Cancer cells produce OPN by stimulation of fetal calf serum added to the outside medium. However, when OPN is present in the culture liquid, the cells produce Matrix Metalloproteinase (MMP) that is a collagen-degrading enzyme so that Matrigel is dissolved, and in addition, the cells transfer to the outside well due to their improved migration capacity. […]
Cells of a human non-small cell lung cancer-derived cell line A549 were suspended in DMEM medium containing 10% FCS and 1% P/S at 1.8×10^5 cells/mL to obtain a cell suspension. […] This day was counted as Day 0 of operation. […]

In the case of CCCCCCCCCCCC(=O)[C@H]1C(=O)O[C@@H](C)C[C@@H]1C [Chemical formula 3], the “total number of invading cells vs control group” value (25 μmol/L, 48±4 hours) is reported as “no significant difference”, the “total number of invading cells relative to control group” value (50 μmol/L, 48±4 hours) is reported as “about half” and the “suppression of matrix invasion vs control group” value (A549 cells, 50 μmol/L, significance level less than 1%) is reported as “significantly suppressed”.
